From patent US20100285115A1, “Novel Antiretroviral Combination” (CIPLA LIMITED, priority 2007, published 2010)

What was measured:
[1] = Stability study of Atazanavir and Ritonavir tablet; format: physicochemical
From the text: Stability study data of Atazanavir and Ritonavir tablet: [table]

[2] = manufactured in solid dosage form such as tablet; U.S. Pat. No. 6,458,818; cited from earlier work

SMILES	Assay (%) (Limit 90-110% of Labelled amount) ([1]; 25° C./60% RH, 2 M)	Assay (%) (Limit 90-110% of Labelled amount) ([1]; 40° C./75% RH, 2 M)	Assay (%) (Limit 90-110% of Labelled amount) ([1]; Initial)	oral bioavailability [2]
COC(=O)N[C@H](C(=O)N[C@@H](Cc1ccccc1)[C@@H](O)CN(Cc1ccc(-c2ccccn2)cc1)NC(=O)[C@@H](NC(=O)OC)C(C)(C)C)C(C)(C)C [Atazanavir]	99.0%	98%	100.3%	
CC(C)c1nc(CN(C)C(=O)N[C@H](C(=O)N[C@@H](Cc2ccccc2)C[C@H](O)[C@H](Cc2ccccc2)NC(=O)OCc2cncs2)C(C)C)cs1 [Ritonavir]	99.3%	96%	99.5%	poor
